Assays:
Assay in all cases: cells
CTB-1 = type: functional, cell-based, Homo sapiens; settings: Homo sapiens, CTB-1
Description: SANGER: Inhibition of human CTB-1 cell growth in a cell viability assay.

DJM-1 = type: functional, cell-based, Homo sapiens; settings: Homo sapiens, DJM-1
Description: SANGER: Inhibition of human DJM-1 cell growth in a cell viability assay.

DSH1 = type: functional, cell-based; settings: Homo sapiens
Description: SANGER: Inhibition of human DSH1 cell growth in a cell viability assay.

ES4 = type: functional, cell-based, Homo sapiens; settings: Homo sapiens, ES4
Description: SANGER: Inhibition of human ES4 cell growth in a cell viability assay.

EW-1 = type: functional, cell-based, Homo sapiens; settings: Homo sapiens, EW-1
Description: SANGER: Inhibition of human EW-1 cell growth in a cell viability assay.

EW-13 = type: functional, cell-based, Homo sapiens; settings: Homo sapiens, EW-13; read-out: IC50
Description: SANGER: Inhibition of human EW-13 cell growth in a cell viability assay.

EW-3 = type: functional, cell-based, Homo sapiens; settings: Homo sapiens, EW-3
Description: SANGER: Inhibition of human EW-3 cell growth in a cell viability assay.

GCIY = type: functional, cell-based, Homo sapiens; settings: Homo sapiens, GCIY
Description: SANGER: Inhibition of human GCIY cell growth in a cell viability assay.

GT3TKB = type: functional, cell-based, Homo sapiens; settings: Homo sapiens, GT3TKB
Description: SANGER: Inhibition of human GT3TKB cell growth in a cell viability assay.

HAL-01 = type: functional, cell-based, Homo sapiens; settings: Homo sapiens, HAL-01
Description: SANGER: Inhibition of human HAL-01 cell growth in a cell viability assay.

HCE-T = type: functional, cell-based, Homo sapiens; settings: Homo sapiens, HCE-T
Description: SANGER: Inhibition of human HCE-T cell growth in a cell viability assay.

IST-MES1 = type: functional, cell-based, Homo sapiens; settings: Homo sapiens, IST-MES1
Description: SANGER: Inhibition of human IST-MES1 cell growth in a cell viability assay.

JAR = type: functional, cell-based, Homo sapiens; settings: Homo sapiens, JAR
Description: SANGER: Inhibition of human JAR cell growth in a cell viability assay.

JVM-2 = type: functional, cell-based, Homo sapiens; settings: Homo sapiens, JVM-2
Description: SANGER: Inhibition of human JVM-2 cell growth in a cell viability assay.

KE-37 = type: functional, cell-based, Homo sapiens; settings: Homo sapiens, KE-37
Description: SANGER: Inhibition of human KE-37 cell growth in a cell viability assay.

KURAMOCHI = type: functional, cell-based, Homo sapiens; settings: Homo sapiens, KURAMOCHI
Description: SANGER: Inhibition of human KURAMOCHI cell growth in a cell viability assay.

L-363 = type: functional, cell-based, Homo sapiens; settings: Homo sapiens, L-363
Description: SANGER: Inhibition of human L-363 cell growth in a cell viability assay.

LAMA-84 = type: functional, cell-based, Homo sapiens; settings: Homo sapiens, LAMA-84
Description: SANGER: Inhibition of human LAMA-84 cell growth in a cell viability assay.

LB1047-RCC = type: functional, cell-based, Homo sapiens; settings: Homo sapiens, LB1047-RCC
Description: SANGER: Inhibition of human LB1047-RCC cell growth in a cell viability assay.

LU-139 = type: functional, cell-based, Homo sapiens; settings: Homo sapiens, LU-139
Description: SANGER: Inhibition of human LU-139 cell growth in a cell viability assay.

MC116 = type: functional, cell-based, Homo sapiens; settings: Homo sapiens, MC116
Description: SANGER: Inhibition of human MC116 cell growth in a cell viability assay.

ML-2 = type: functional, cell-based, Homo sapiens; settings: Homo sapiens, ML-2
Description: SANGER: Inhibition of human ML-2 cell growth in a cell viability assay.

NB10 = type: functional, cell-based, Homo sapiens; settings: Homo sapiens, NB10
Description: SANGER: Inhibition of human NB10 cell growth in a cell viability assay.

NCI-H446 = type: functional, cell-based, Homo sapiens; settings: Homo sapiens, NCI-H446
Description: SANGER: Inhibition of human NCI-H446 cell growth in a cell viability assay.

NCI-H526 = type: functional, cell-based, Homo sapiens; settings: Homo sapiens, NCI-H526
Description: SANGER: Inhibition of human NCI-H526 cell growth in a cell viability assay.

NCI-H747 = type: functional, cell-based, Homo sapiens; settings: Homo sapiens, NCI-H747
Description: SANGER: Inhibition of human NCI-H747 cell growth in a cell viability assay.

NCI-H82 = type: functional, cell-based, Homo sapiens; settings: Homo sapiens, NCI-H82
Description: SANGER: Inhibition of human NCI-H82 cell growth in a cell viability assay.

SNU1 = type: functional, cell-based, Homo sapiens; settings: Homo sapiens, SNU1
Description: SANGER: Inhibition of human NCI-SNU-1 cell growth in a cell viability assay.

NMC-G1 = type: functional, cell-based, Homo sapiens; settings: Homo sapiens, NMC-G1
Description: SANGER: Inhibition of human NMC-G1 cell growth in a cell viability assay.

NOS-1 = type: functional, cell-based, Homo sapiens; settings: Homo sapiens, NOS-1
Description: SANGER: Inhibition of human NOS-1 cell growth in a cell viability assay.

OS-RC-2 = type: functional, cell-based, Homo sapiens; settings: Homo sapiens, OS-RC-2
Description: SANGER: Inhibition of human OS-RC-2 cell growth in a cell viability assay.

OVCAR-4 = type: functional, cell-based, Homo sapiens; settings: Homo sapiens, OVCAR-4
Description: SANGER: Inhibition of human OVCAR-4 cell growth in a cell viability assay.

P30-OHK = type: functional, cell-based, Homo sapiens; settings: Homo sapiens, P30-OHK
Description: SANGER: Inhibition of human P30-OHK cell growth in a cell viability assay.

RKO = type: functional, cell-based, Homo sapiens; settings: Homo sapiens, RKO
Description: SANGER: Inhibition of human RKO cell growth in a cell viability assay.

RXF 393 = type: functional, cell-based, Homo sapiens; settings: Homo sapiens, RXF 393
Description: SANGER: Inhibition of human RXF393 cell growth in a cell viability assay.

SBC-1 = type: functional, cell-based, Homo sapiens; settings: Homo sapiens, SBC-1
Description: SANGER: Inhibition of human SBC-1 cell growth in a cell viability assay.

SHP77 = type: functional, cell-based, Homo sapiens, SHP-77; settings: Homo sapiens, SHP77
Description: SANGER: Inhibition of human SHP-77 cell growth in a cell viability assay.

SK-N-FI = type: functional, cell-based, Homo sapiens; settings: Homo sapiens, SK-N-FI
Description: SANGER: Inhibition of human SK-N-FI cell growth in a cell viability assay.

SK-NEP-1 = type: functional, cell-based, Homo sapiens; settings: Homo sapiens, SK-NEP-1
Description: SANGER: Inhibition of human SK-NEP-1 cell growth in a cell viability assay.

SW 962 = type: functional, cell-based, Homo sapiens; settings: Homo sapiens, SW 962
Description: SANGER: Inhibition of human SW962 cell growth in a cell viability assay.

697 = type: functional, cell-based, Homo sapiens; settings: Homo sapiens
Description: SANGER: Inhibition of human 697 cell growth in a cell viability assay.

A3-KAW = type: functional, cell-based, Homo sapiens; settings: Homo sapiens, A3-KAW
Description: SANGER: Inhibition of human A3-KAW cell growth in a cell viability assay.

A4-Fuk = type: functional, cell-based, Homo sapiens; settings: Homo sapiens, A4-Fuk
Description: SANGER: Inhibition of human A4-Fuk cell growth in a cell viability assay.

ATN-1 = type: functional, cell-based, Homo sapiens; settings: Homo sapiens, ATN-1
Description: SANGER: Inhibition of human ATN-1 cell growth in a cell viability assay.

BE-13 = type: functional, cell-based, Homo sapiens; settings: Homo sapiens, BE-13
Description: SANGER: Inhibition of human BE-13 cell growth in a cell viability assay.

TGBC1TKB = type: functional, cell-based, Homo sapiens; settings: Homo sapiens, TGBC1TKB
Description: SANGER: Inhibition of human TGBC1TKB cell growth in a cell viability assay.

TK-10 = type: functional, cell-based, Homo sapiens; settings: Homo sapiens, TK-10
Description: SANGER: Inhibition of human TK10 cell growth in a cell viability assay.

U-266 = type: functional, cell-based, Homo sapiens; settings: Homo sapiens, U-266
Description: SANGER: Inhibition of human U-266 cell growth in a cell viability assay.

CAS-1 = type: functional, cell-based, Homo sapiens; settings: Homo sapiens, CAS-1
Description: SANGER: Inhibition of human CAS-1 cell growth in a cell viability assay.

COLO-684 = type: functional, cell-based, Homo sapiens; settings: Homo sapiens, COLO-684
Description: SANGER: Inhibition of human COLO-684 cell growth in a cell viability assay.

## CN(NC(=O)CC(=O)NN(C)C(=S)c1ccccc1)C(=S)c1ccccc1 [ELESCLOMOL]
CTB-1
  IC50: 8.64 nM
DJM-1
  IC50: 54.3 nM
DSH1
  IC50: 23.3 nM
ES4
  IC50: 4.39 nM
EW-1
  IC50: 5.24 nM
EW-13
  IC50: 19.8 nM
EW-3
  IC50: 39.9 nM
GCIY
  IC50: > 200 nM
GT3TKB
  IC50: 16 nM
HAL-01
  IC50: 128 nM
HCE-T
  IC50: 4.45 nM
IST-MES1
  IC50: 54.1 nM
JAR
  IC50: 5.97 nM
JVM-2
  IC50: > 200 nM
KE-37
  IC50: > 200 nM
KURAMOCHI
  IC50: > 200 nM
L-363
  IC50: 12.3 nM
LAMA-84
  IC50: 52.7 nM
LB1047-RCC
  IC50: 10.7 nM
LU-139
  IC50: 121 nM
MC116
  IC50: > 200 nM
ML-2
  IC50: > 200 nM
NB10
  IC50: 15.2 nM
NCI-H446
  IC50: 90.1 nM
NCI-H526
  IC50: > 200 nM
NCI-H747
  IC50: 57.4 nM
NCI-H82
  IC50: > 200 nM
SNU1
  IC50: 4.86 nM
NMC-G1
  IC50: 20.4 nM
NOS-1
  IC50: < 0.781 nM
OS-RC-2
  IC50: 47.7 nM
OVCAR-4
  IC50: 5.87 nM
P30-OHK
  IC50: > 200 nM
RKO
  IC50: 21 nM
RXF 393
  IC50: 13.4 nM
SBC-1
  IC50: 35.1 nM
SHP77
  IC50: > 200 nM
SK-N-FI
  IC50: 81.5 nM
SK-NEP-1
  IC50: 76.1 nM
SW 962
  IC50: 111 nM
697
  IC50: 6.13 nM
A3-KAW
  IC50: 86.5 nM
A4-Fuk
  IC50: 108 nM
ATN-1
  IC50: > 200 nM
BE-13
  IC50: > 200 nM
TGBC1TKB
  IC50: 33.3 nM
TK-10
  IC50: 42.3 nM
U-266
  IC50: 15.8 nM
CAS-1
  IC50: 116 nM
COLO-684
  IC50: 9.21 nM

## C/C(=C\c1csc(C)n1)[C@@H]1C[C@@H]2O[C@]2(C)CCC[C@H](C)[C@H](O)[C@@H](C)C(=O)C(C)(C)[C@@H](O)CC(=O)O1 [PATUPILONE]
CTB-1
  IC50: 8.31 nM
DJM-1
  IC50: 3.13 nM
DSH1
  IC50: > 32 nM
ES4
  IC50: 0.739 nM
EW-1
  IC50: 1.9 nM
EW-13
  IC50: 0.903 nM
EW-3
  IC50: > 32 nM
GCIY
  IC50: 6.59 nM
GT3TKB
  IC50: 0.655 nM
HAL-01
  IC50: 5.02 nM
HCE-T
  IC50: 4.07 nM
IST-MES1
  IC50: > 32 nM
JAR
  IC50: > 32 nM
JVM-2
  IC50: > 32 nM
KE-37
  IC50: 1.91 nM
KURAMOCHI
  IC50: 6.05 nM
L-363
  IC50: 5.88 nM
LAMA-84
  IC50: 18.9 nM
LB1047-RCC
  IC50: 2 nM
LU-139
  IC50: > 32 nM
MC116
  IC50: 3.86 nM
ML-2
  IC50: 2.46 nM
NB10
  IC50: 11 nM
NCI-H446
  IC50: 21.4 nM
NCI-H526
  IC50: 7.24 nM
NCI-H747
  IC50: 2.54 nM
NCI-H82
  IC50: > 32 nM
SNU1
  IC50: > 32 nM
NMC-G1
  IC50: 1.75 nM
NOS-1
  IC50: 2.72 nM
OS-RC-2
  IC50: 1.21 nM
OVCAR-4
  IC50: 1.61 nM
P30-OHK
  IC50: 4.49 nM
RKO
  IC50: 0.0647 nM
RXF 393
  IC50: 3.41 nM
SBC-1
  IC50: > 32 nM
SHP77
  IC50: 4.92 nM
SK-N-FI
  IC50: > 32 nM
SK-NEP-1
  IC50: 10 nM
SW 962
  IC50: 1.04 nM
697
  IC50: 1.78 nM
A3-KAW
  IC50: 6.06 nM
A4-Fuk
  IC50: 1.09 nM
ATN-1
  IC50: 3.47 nM
BE-13
  IC50: 7.3 nM
TGBC1TKB
  IC50: > 32 nM
TK-10
  IC50: 2.05 nM
U-266
  IC50: 9.72 nM
CAS-1
  IC50: 24.5 nM
COLO-684
  IC50: 6.97 nM

— ChEMBL document CHEMBL1201861, “Genomics of Drug Sensitity in Cancer screening data, Wellcome Trust Sanger Institute”
